# Where two headings read alike, the source gives them in different places. No end group written: not given here.
# How the values were obtained:
# [1] = test system: adoptively transferred EAE in SJL mice; assay: EAE induced by adoptive transfer of PLP(139-151) specific T-cell lines into naive SJL mice; assay type: in vivo; details: for additional (relapsing) episodes of EAE: adoptive transfer recipients, treatment initiated after clinical signs of EAE
# Excerpt: The T-cell lines employed for these studies were derived from SJL mice previously immunized with 139CFA. The T-cell lines are used for adoptive transfer studies following the third round of antigen-stimulation in vitro. The source of antigen presenting cells is irradiated syngeneic thymus cells. This is a procedure that is routinely used by other investigators and is known by those of skill in the art (Bourdette, Vandenbark et al. 1989).
# We treated some of the cell recipients with 50 micrograms 139MAP on three consecutive days with treatment initiated after the development of clinical signs of EAE. […] This is very clear in vivo data showing the 139MAP-associated inhibition of rEAE in the SJL mouse model. The 139MAP reagent inhibits the progression of clinically apparent disease as well as the onset and the continued development of EAE in both the actively-induced as well as the adoptively-transferred forms of EAE.
# EAE in SJL mice = EAE in SJL mice immunized with PLP(139-151) in CFA (139CFA), treatment after immunization before disease; assay type: in vivo; details: for development of clinical signs of EAE: intraperitoneal or subcutaneous, days 2, 7 and 10 after 139CFA
# Excerpt: For all of these studies, MAP octamers of the 139-151aa peptide of proteolipid protein (PLP) were used and prepared by solid phase peptide synthesis as described above in the Materials and Methods. Each PLP(139-151) MAP octamer is comprised of eight polypeptide chains of the 139-151 aa of PLP each covalently linked to a central core as shown in FIG. 1. The general structure of the MAP (FIG. 1) is therefore dissimilar to the linear array typical of the peptide multimers used by others in the prior art (Falk, Rotzschke et al. 2000; Falk, Rotzschke et al. 2000; Stienekemeier, Falk et al. 2001). MAPs are also referred to as dendrimers to emphasize the branched nature of their structure (Bracci, Falciani et al. 2003). Initial studies with the 139-151 PLP MAP octamers (139MAP) used SJL mice that were first immunized with the encephalitogenic 139-151 PLP peptide in CFA (139CFA) and subsequently injected with saline solutions of 139MAP. […] For this initial study, mice were treated by intraperitoneal or subcutaneous injection with 139MAP on days 2, 7 and 10 following 139CFA injection.
# EAE in Lewis rats = EAE in Lewis rats injected with gpMBP in CFA, treatment with saline solution of octamer or monomer; assay type: in vivo; details: 4 and 8 days after gpMBP-CFA
# Excerpt: Experimental autoimmune encephalomyelitis (EAE) in the rat is an acute paralytic disease from which most animals spontaneously recover. The disease can be induced in susceptible inbred Lewis and DA rats with myelin basic protein (MBP), or encephalitogenic MBP peptides administered in complete Freund's adjuvant (CFA). The disease can be adoptively transferred to syngeneic recipients with primed T cells that have been reactivated in vitro with antigen. Studies of EAE in susceptible rats have provided many important insights into the interactions of T cells and accessory cells that culminate in the induction of the autoimmune response.
# The influence of a saline solution of the 72-85gpMBP octamer on the course of EAE in Lewis rats previously injected with gpMBP emulsified in CFA was investigated. We injected 10 or 50 micrograms of the 72-85 gpMBP octamer into Lewis rats 4 and 8 days after they had been injected with gpMBP-CFA. […] Rats that received an equivalent amount of the 72-85 amino acid gpMBP peptide monomer at day 4 and day 8 developed clinical signs of disease.
# [2] = test system: antigen specific lymphocytes; assay: Additional studies on lymphoid traffic after 139MAP treatment; assay type: in vivo
# [3] = test system: PLP(178-191) induced rEAE in SJL mice; assay: EAE in SJL mice immunized with PLP(178-191) in CFA (antigen specificity); assay type: in vivo; details: for disease development: SJL mice immunized with PLP(178-191) in CFA, treated days 2, 7 and 10 (FIG. 5)
# Excerpt: The relapsing disease that develops in SJL mice is thought to occur due to the immune response that develops against additional encephalitogenic determinants found in PLP and MBP (Cross, Tuohy et al. 1993). […] Immunization of SJL mice with the PLP(178-191) peptide in CFA caused the development of clinically apparent disease 12-14 days following immunization. […] FIG. 6 represents a second experiment (4 animals per group) in which mice treated with 139MAP after they developed initial signs of EAE due to immunization with the PLP(178-191) peptide.
# [4] = test system: PLP(139-151) peptide specific T-cell lines; assay: Proliferation of encephalitogenic T-cell line in response to antigen in vitro; assay type: cell-based; details: T-cell line from 139CFA-immunized SJL mice
# [5] = test system: relapsing EAE (rEAE) in SJL mice; details: for relapses (rEAE): 100 microgram doses on two consecutive days after clinical disease evident
# Procedure: Animals are graded as grade 1 when the first sign of disease is evident which is a flaccid tail.
# The 139MAP-treated animals were given 100 microgram doses of 139MAP on two consecutive days. […] All reagents were administered on two consecutive days after clinical disease was evident.
# diabetes in NOD mice = details: cited from earlier work
substance,measurement,setting,value
72-85 gpMBP octamer: chemically synthesized octamers of the 72-85 amino acid peptide of guinea pig myelin basic protein (SEQ ID NO:7) (LPQKSQRSQDENPV; also: octamer on lysine-branched core),additional (relapsing) episodes of EAE,[1],developed a relapsing episode of clinically severe EAE
same,development of EAE disease,"EAE in SJL mice; SJL mice immunized with 139CFA, control octamer, dose not stated (FIG. 3)",had no effect of the development of EAE disease
same,clinical signs of EAE,EAE in Lewis rats; 10 micrograms,developed less severe disease compared to the control group
same,clinical signs of EAE,EAE in Lewis rats; 50 micrograms,did not develop any signs of clinical disease
"72-85 amino acid gpMBP peptide monomer: monomer of the 72-85 amino acid peptide of guinea pig myelin basic protein (LPQKSQRSQDENPV; UniProt P25188 72-85, looked up, fragment) [reference compound]",clinical signs of EAE,EAE in Lewis rats; 10 micrograms,No diminution of the signs of clinical disease
same,clinical signs of EAE,EAE in Lewis rats; 50 micrograms,modest diminution of the clinical signs of EAE
"139MAP: chemically synthesized octamer of PLP 139-151 peptide (HSLGKWLGHPDKF, SEQ ID NO:8), each linked through KKKKKGG spacer to a lysine-branched core (also: octamer, each linked via KKKKKGG spacer to lysine-branched core (MAP))",lymphoid traffic to the autoimmune target organ,[2],alters lymphoid traffic to the autoimmune target organ
same,continued development of the first episode of disease,"[1]; 50 micrograms on three consecutive days, initiated after clinical signs of EAE",inhibited the continued development of the first episode of disease
same,development of adoptively transferred EAE and subsequent relapses,"[1]; administered prior to onset of disease or at first indication of disease (tail flaccidity), data not shown",completely inhibited
same,additional (relapsing) episodes of EAE,[1],no or very modest signs of additional episodes of EAE
same,additional (relapsing) episodes of EAE,[1]; listed as MAP139 octamer,inhibits the development of rEAE
same,disease development,[3],no significant inhibition of disease development
same,disease development,[3]; listed as MAP139 octamer,does not inhibit the development of PLP(178-191) induced rEAE
same,development of relapses,"[3]; SJL mice immunized with PLP(178-191), treated after initial signs of EAE",inhibits the development of relapses
same,development of clinical signs of EAE,"EAE in SJL mice; SJL mice, 20 micrograms",Virtually all signs of disease were prevented
same,development of clinical signs of EAE,"EAE in SJL mice; SJL mice, 100 micrograms",Virtually all signs of disease were prevented
same,diminution of EAE,"EAE in SJL mice; SJL mice, three injections of 5 micrograms after 139CFA (FIG. 3)",considerable diminution of EAE
same,T-cell line proliferation in response to antigen,[4],proliferated in response
same,relapses (rEAE),[5],inhibited the relapse component of this disease
same,subsequent course of disease,[5]; 100 microgram doses on two consecutive days after clinical disease evident (grades 1-3),profound and immediate influence on the subsequent course of disease
same,relapses (rEAE),[5]; listed as MAP139 octamer,effectively inhibits rEAE
B(9-23): peptide of residues 9-23 of the insulin B chain (SEQ ID NO:2) (SHLVEALYLVCGERG),anaphylaxis,diabetes in NOD mice; peptide therapy,development of anaphylaxis
same,onset and incidence of diabetes,diabetes in NOD mice; subcutaneous or intranasal administration,marked delay in the onset and a decrease in the incidence of diabetes
